Here are results for seven compounds from paper PMC9318203, “Squaramide-Tethered Sulfonamides and Coumarins: Synthesis, Inhibition of Tumor-Associated CAs IX and XII and Docking Simulations” (International Journal of Molecular Sciences, 2022).

The target in one data set is T1, hCA IX (Homo sapiens, UniProt Q16790).
T1 construct: made in house
The experiment in a line: stopped-flow CO2 hydrase assay, hCA IX. In kind it is biochemical. Conditions: for S.I. I/IX: Ki (CA I)/Ki (CA IX); for S.I. II/IX: Ki (CA II)/Ki (CA IX). As to the method: (§1) For that purpose, the stopped-flow CO2 hydration assay was used (Table 1).
(§2) The inhibitory properties of title compounds against CAs were determined using the stopped-flow CO2 hydrase assay, as previously reported.

The test system of data set [1] is A549, HBL-100, HeLa, SW1573, T-47D, WiDr. The experiment in a line: antiproliferative assay (NCI protocol), panel of six human tumor cell lines. In kind it is cell-based. The conditions noted are these: normoxic conditions. As to the method:
(§3) Some representative compounds (5a–e, 16b, 16e–i) were also tested as potential antiproliferative agents against a panel of six human tumor cell lines: A549 (non-small cell lung), HBL-100 (breast), HeLa (cervix), SW1573 (non-small cell lung), T-47D (breast), WiDr (colon). Unfortunately, no relevant activity was found for the tested compounds.
(§4) Minor modifications of the US National Cancer Institute (NCI) protocol were used.

A further data set deals with T2, hCA II (Homo sapiens, UniProt P00918).
T2 construct: made in house
The experiment in a line: stopped-flow CO2 hydrase assay, hCA II. In kind it is biochemical. As to the method: as §1, §2

Another data set has as its target T3, hCA I (Homo sapiens, UniProt P00915).
T3 construct: made in house
The experiment in a line: stopped-flow CO2 hydrase assay, hCA I. In kind it is biochemical. As to the method:
as §1, §2

The target of another data set is T4, hCA XII (Homo sapiens, UniProt O43570).
T4 construct: made in house
The experiment in a line: stopped-flow CO2 hydrase assay, hCA XII. In kind it is biochemical. Conditions: for S.I. I/XII: Ki (CA I)/Ki (CA XII); for S.I. II/XII: Ki (CA II)/Ki (CA XII). As to the method:
as §1, §2

For data set [2], the system named is A549 (non-small cell lung). The experiment in a line: antiproliferative assay (NCI protocol), A549. In kind it is cell-based. Conditions: Homo sapiens; line A549; normoxic conditions. As to the method: as §3, §4
The mark [3] stands for this setting: coumarin-containing squaramides, incubation time 6 h, mean from three assays.
The mark [4] stands for this setting: sulfonamido-containing squaramides, mean from 3 assays, stopped flow.

The structures appear in SMILES notation.

T3 sequence (P00915 whole entry): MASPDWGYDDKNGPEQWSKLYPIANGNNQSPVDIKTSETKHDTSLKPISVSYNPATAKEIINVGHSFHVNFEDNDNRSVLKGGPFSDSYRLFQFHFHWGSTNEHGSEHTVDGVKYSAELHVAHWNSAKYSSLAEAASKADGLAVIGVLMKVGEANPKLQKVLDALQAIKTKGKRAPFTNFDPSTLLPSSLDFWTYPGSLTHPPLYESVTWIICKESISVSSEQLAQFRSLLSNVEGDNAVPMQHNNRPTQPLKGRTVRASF
T4 sequence (O43570 25-354): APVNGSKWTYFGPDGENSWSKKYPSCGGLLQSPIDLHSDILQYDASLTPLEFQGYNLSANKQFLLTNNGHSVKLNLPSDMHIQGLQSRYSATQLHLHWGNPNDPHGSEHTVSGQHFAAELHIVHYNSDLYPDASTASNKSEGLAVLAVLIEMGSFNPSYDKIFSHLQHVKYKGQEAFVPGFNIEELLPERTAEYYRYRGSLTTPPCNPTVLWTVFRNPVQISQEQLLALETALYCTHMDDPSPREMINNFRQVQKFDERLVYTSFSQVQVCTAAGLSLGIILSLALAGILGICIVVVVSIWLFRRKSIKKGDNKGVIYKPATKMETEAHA

Take `Cc1cc(=O)oc2cc(OCCCCCNc3c(Nc4ccc(F)cc4)c(=O)c3=O)ccc12` [Compound 16f, 3-[(4′-Fluorophenyl)amino]-4-{[5″-(4‴-methyl-2‴-oxo-2‴H-chromen-7‴-yl)oxypentyl]amino}cyclobut-3-ene-1,2-dione]: the inhibitory constant (Ki) is 43.7 nM at hCA IX (setting [3]), more than 10 µM at hCA II (setting [3]), more than 10 µM on hCA I (setting [3]) and 15.9 nM at hCA XII (setting [3]). In data set [1] (all the cell lines), this compound returned a GI50 of more than 100 µM.
Take `NS(=O)(=O)c1ccc(CCNc2c(NCCc3ccc(S(N)(=O)=O)cc3)c(=O)c2=O)cc1` [Compound 6, 3,4-Bis[2′-(4″-sulfonamidophenyl)ethylamino]cyclobut-3-ene-1,2-dione]: at hCA IX, the “S.I. I/IX” value amounted to 0.52. Further, on hCA IX, the “S.I. II/IX” value turned out to be 0.68. The Ki at hCA IX (setting [4]) turned out to be 83 nM; at hCA II (setting [4]) it was 0.0562 µM; on hCA I (setting [4]), 0.0432 µM; on hCA XII (setting [4]), 87.8 nM. In data set [1] (all the cell lines), the GI50 was more than 100 µM. Further, at hCA XII, the “S.I. I/XII” value was 0.49. In addition, on hCA XII, the “S.I. II/XII” value is listed as 0.64.
For `Cc1cc(=O)oc2cc(OCCCCCNc3c(Nc4ccccc4)c(=O)c3=O)ccc12` [Compound 16b, 3-{[5′-((4″-Methyl-2″-oxo-2″H-chromen-7″-yl)oxy)pentyl]amino}-4-phenylaminocyclobut-3-ene-1,2-dione], the melting point is more than 250 °C. Further, at hCA IX (setting [3]), the Ki came out at 44.1 nM. In data set [1] (the rest of the cell lines (other than A549)), this compound had a GI50 of more than 100 µM. In data set [2], this compound returned a GI50 of 94 ± 10 µM. Also, on hCA II (setting [3]), the Ki is more than 10 µM. In addition, on hCA I (setting [3]), the inhibitory constant (Ki) is more than 10 µM. Besides, at hCA XII (setting [3]), affinity was put at a Ki of 14.3 nM.
In the case of `COc1ccc(Nc2c(NCCCCCOc3ccc4c(C)cc(=O)oc4c3)c(=O)c2=O)cc1` [Compound 16e, 3-[(4′-Methoxyphenyl)amino]-4-{[5″-(4‴-methyl-2‴-oxo-2‴H-chromen-7‴-yl)oxypentyl]amino}cyclobut-3-ene-1,2-dione], the melting point lay in the range of 215 to 216 °C. The compound also registered a Ki on hCA IX (setting [3]) of 59.7 nM. The 50% growth inhibitory concentration (GI50) in data set [1] (all the cell lines) is more than 100 µM. Further, the Ki on hCA II (setting [3]) was more than 10 µM. This compound also had a Ki at hCA I (setting [3]) of more than 10 µM. On hCA XII (setting [3]), this compound had a Ki of 19.5 nM.
Turning to `NS(=O)(=O)c1ccc(CCNc2c(Nc3ccc(Cl)cc3)c(=O)c2=O)cc1` [Compound 5c, 3-(p-Chlorophenyl)amino-4-[2′-(4″-sulfonamidophenyl)ethylamino]cyclobut-3-ene-1,2-dione], the melting point was more than 250 °C. Also, on hCA IX, the “S.I. I/IX” value came out at 1.8 and the “S.I. II/IX” value is given as 1.7. This compound also returned a Ki at hCA IX (setting [4]) of 490 nM. At hCA II (setting [4]), this compound displayed a Ki of 0.819 µM. This compound also returned an inhibition constant Ki at hCA I (setting [4]) of 0.881 µM. For the same compound, at hCA XII, the “S.I. I/XII” value is given as 9.8 and the “S.I. II/XII” value came to 9.1. The compound further showed an inhibitory constant (Ki) on hCA XII (setting [4]) of 90.2 nM.
As to `Cc1cc(=O)oc2cc(OCCCCCNc3c(Nc4ccc(Br)cc4)c(=O)c3=O)ccc12` [Compound 16h, 3-[(4′-Bromophenyl)amino]-4-{[5″-(4‴-methyl-2‴-oxo-2‴H-chromen-7‴-yl)oxypentyl]amino}cyclobut-3-ene-1,2-dione], the melting point fell in the range of 248 to 249 °C. This compound also came in with an inhibitory constant (Ki) at hCA IX (setting [3]) of 46.2 nM. On hCA II (setting [3]), the Ki is more than 10 µM. The same compound had a Ki at hCA I (setting [3]) of more than 10 µM. Further, on hCA XII (setting [3]), the inhibition constant (Ki) amounted to 13.9 nM.
`Cc1cc(=O)oc2cc(OCCCCCNc3c(Nc4ccc(I)cc4)c(=O)c3=O)ccc12` [Compound 16i, 3-[(4′-Iodophenyl)amino]-4-{[5″-(4‴-methyl-2‴-oxo-2‴H-chromen-7‴-yl)oxypentyl]amino}cyclobut-3-ene-1,2-dione] returned a melting point of more than 250 °C. Besides, the inhibitory constant (Ki) at hCA IX (setting [3]) turned out to be 57 nM. The same compound returned a Ki on hCA II (setting [3]) of more than 10 µM. This compound also gave a Ki at hCA I (setting [3]) of more than 10 µM. The compound also came in with a Ki on hCA XII (setting [3]) of 21.5 nM.
